Data on 20 compounds can be found in ChEMBL document CHEMBL1127886, “Inhibition of the RTEM-1 -lactamase by boronic acids” (Bioorg Med Chem Lett, 1994).

A word on the Ki: it is the dissociation constant of the complex between target and ligand, obtained from inhibition or displacement. A low value points to higher affinity.

The target in this assay is Beta-lactamase TEM (Escherichia coli, UniProt P62593). Put plainly: Inhibitory constant was determined against class A RTEM-1 Beta-lactamase from Escherichia coli.
Beta-lactamase TEM, sequence (P62593 whole entry): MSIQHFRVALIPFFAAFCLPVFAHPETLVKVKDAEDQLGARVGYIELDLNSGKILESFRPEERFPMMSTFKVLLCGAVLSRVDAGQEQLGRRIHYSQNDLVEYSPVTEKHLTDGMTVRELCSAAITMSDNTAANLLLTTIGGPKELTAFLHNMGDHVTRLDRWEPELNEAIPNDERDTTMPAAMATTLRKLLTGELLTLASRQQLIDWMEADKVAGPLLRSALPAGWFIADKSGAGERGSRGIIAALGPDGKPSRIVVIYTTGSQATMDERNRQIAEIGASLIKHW
Compound `OB(O)c1ccc(F)c(Cl)c1` showed a Ki of 152 µM.
`OB(O)CCC1CCCCC1` yielded a Ki of 276 µM. This Ki is about 1.8-fold higher than that of the compound before.
The figure for `OB(O)c1ccccc1` [PHENYLBORONIC ACID] is 491 µM; for `COc1ccc(B(O)O)cc1` it is 670 µM; for `OB(O)CCc1ccccc1Cl` it is 106 µM.
With `COc1cccc(CCB(O)O)c1` the figure was 50 µM.
With `OB(O)c1cccc(Br)c1` the figure was 83 µM.
Compound `Cc1cccc(CCB(O)O)c1` displayed a Ki of 83 µM.
For the compound `Cc1ccccc1CCB(O)O`, affinity was put at a Ki of 141 µM.
As for `OB(O)c1cccc(-c2ccccc2)c1`, the affinity corresponds to a Ki of 13.9 µM. This Ki lies about 10-fold lower than the previous one.
`Nc1cccc(B(O)O)c1` returned a Ki of 3700 µM. This Ki is about 270-fold higher than that of the compound before.
In the case of `OB(O)CCc1cccc2ccccc12`, the Ki was found to be 101 µM.
`OB(O)CCc1ccc(C(F)(F)F)cc1`: the affinity corresponds to a Ki of 43 µM. Against the preceding compound, the Ki is about 2.3-fold lower.
`OB(O)CCc1ccc(Cl)cc1` came in with a Ki of 41 µM.
With `Cc1ccc(CCB(O)O)cc1` the figure was 58 µM.
`OB(O)c1ccc(Cl)cc1Cl` yielded an inhibition constant Ki of 94 µM.
With `OB(O)c1ccc(Cl)c(Cl)c1` the figure was 143 µM.
Compound `OB(O)c1ccc(Br)cc1` yielded a Ki of 28 µM.
The figure for `O=C(O)c1ccc(CCB(O)O)cc1` is 49 µM; for `OB(O)CCc1ccc2ccccc2c1` it is 44 µM.
